These results are taken from ChEMBL document CHEMBL1136822, “Synthesis, antiviral activity and pharmacokinetics of P1/P1' substituted 3-aminoindazole cyclic urea HIV protease inhibitors” (Bioorg Med Chem Lett, 2003).

Data set [1] concerns Human immunodeficiency virus 1. As to the kind of experiment: Inhibitory concentration of compound against HIV abbott mutant virus 25-fold resistant to ritonavir. In kind it is functional.
For data set [2], the system named is Human immunodeficiency virus 1. As to the kind of experiment: Inhibitory concentration of compound against HIV HXB2 strain. Type of data set: functional.
Data set [3] deals with Human immunodeficiency virus type 1 protease (Human immunodeficiency virus 1, UniProt Q72874). As to the kind of experiment: Binding affinity against HIV-Protease was determined.
Data set [4] has as its system MT2. As to the kind of experiment: Inhibitory concentration of compound against HIV V82F/[…] mutant in MT2 cells. In kind it is functional. The settings on record: Homo sapiens.
Data set [5] in a line: 8 hour trough Blood level in dog was measured after administration of compound. Type of data set: ADME, organism-based, Canis lupus familiaris. The note with it: read-out: C 8 h.
Data set [6] in a line: Half life period in dog. Type of data set: ADME, organism-based, Canis lupus familiaris. The note with it: in vivo.
Data set [7] is described as follows: Pharmacokinetic activity (Cmax) (10 mg/kg) was determined in dog. Also on record: dose 10 mg/kg. The note with it: in vivo. Type of data set: ADME, organism-based, Canis lupus familiaris.
The next data set is filed under the species Homo sapiens. As to the kind of experiment: Protein binding adjusted IC90s for the I84V mutant was determined. Type of data set: functional.
Data set [8] in a line: Oral bioavailability in dog (dose 10 mg/kg). The settings on record: in vivo. Type of data set: ADME, organism-based, Canis lupus familiaris.
A short description of data set [9]: Effect on increase in RNA IC90 value after HSA (45 mg/mL) and AAG (1 mg/mL) were determined in absence or presence of two plasma proteins (45 mg/mL human serum albumin and 1 mg/mL alpha-1-acid glycoprotein). Type of data set: functional.
The subject of data set [10] is Human immunodeficiency virus 1. As to the kind of experiment: Resistance factor of compound towards HIV-1 was measured as inhibitory concentration of compound required to inhibit viral RNA transcripts accumulation after infection in cells. In kind it is functional.
The subject of data set [11] is MT2. As to the kind of experiment: Inhibitory concentration of compound against HIV […] mutant in MT2 cells. In kind it is functional. The note with it: Homo sapiens.
Data set [12] can be described thus: Half life period (10 mg/kg) was determined in dog. In kind it is ADME, organism-based, Canis lupus familiaris. The note with it: in vivo.
Data set [13] is described as follows: Pharmacokinetic activity (Cmax) in dog. In kind it is ADME, organism-based, Canis lupus familiaris. The note with it: in vivo.
The test system of data set [14] is Human immunodeficiency virus 1. As to the kind of experiment: Inhibitory concentration of compound against HIV vertex mutant virus 19-fold resistant to […]. Type of data set: functional.
Data set [15] relates to Human immunodeficiency virus 1. As to the kind of experiment: Inhibitory concentration of compound against HIV vertex mutant virus 19-fold resistant to amprenavir. In kind it is functional.

Some results are limits rather than exact numbers.

Broadly, the IC90 is the concentration at which the effect reaches the 90% level. Higher therefore signals a need for much substance. As a reminder, the Ki is the dissociation constant of the complex between target and ligand, obtained from inhibition or displacement. High values mean lower affinity, low ones higher affinity. As a reminder, the half-life is the time needed for the level to fall by half in the phase considered. Lower therefore signals fast loss. One may read the Cmax as the peak of the concentration-time curve. For orientation: bioavailability means the share of a dose that reaches the circulation, judged against a reference dose that is usually intravenous. Read a low bioavailability as poor availability. Regarding `Cc1cccc(C[C@@H]2[C@H](O)[C@@H](O)[C@@H](Cc3cccc(C)c3)N(Cc3ccc4[nH]nc(N)c4c3)C(=O)N2Cc2ccccc2)c1`, the IC90 stood at 1760 nM in data set [1]; 26 nM in data set [2]; 2680 nM with MT2 [4]; 300 nM in the data set listed under Homo sapiens; 25 nM in data set [10]; 104 nM in the data set on MT2 [11]. The compound further showed a Ki in [3] of 0.062 nM. Besides, the concentration at 8 h in [5] was determined as 0.35 µM. In [6], the half-life is 3.9 h. The compound further yielded a Cmax in [7] of 3.6 µM. Besides, the bioavailability in data set [8] was found to be 20%. In data set [9], the Fold shift is 12.
Turning to `CCCCN1C(=O)N(Cc2ccc3[nH]nc(N)c3c2)[C@H](Cc2ccc(CC)cc2)[C@H](O)[C@@H](O)[C@H]1Cc1ccc(CC)cc1`, the IC90 was 4030 nM in data set [1]; 22 nM in data set [2]; above 1800 nM with MT2 [4]; 220 nM in the data set listed under Homo sapiens; 10 nM in data set [10]; 260 nM with MT2 [11]. Moreover, the inhibition constant Ki in data set [3] was determined as 0.094 nM. In addition, in data set [9], the Fold shift amounted to 22.
In [12], `Nc1n[nH]c2ccc(CN3C(=O)N(Cc4ccccc4)[C@H](Cc4ccccc4)[C@H](O)[C@@H](O)[C@H]3Cc3ccccc3)cc12` showed a half-life of 3.5 h. Also, the concentration at 8 h in data set [5] was found to be 2.8 µM. Further, the highest level in [13] (Cmax) was 9.6 µM. In data set [8], this compound yielded a bioavailability of 60%.
Consider `CCCCN1C(=O)N(Cc2ccc3[nH]nc(N)c3c2)[C@H](Cc2ccc(C)cc2)[C@H](O)[C@@H](O)[C@H]1Cc1ccc(C)cc1`, for which the IC90 in data set [1] was 1700 nM; in data set [2] it was 16 nM; with MT2 [4], 1750 nM; in data set [14], 7 nM; in the data set filed under Homo sapiens, 420 nM; in data set [10], 12 nM. In addition, in data set [3], the Ki is 0.037 nM. The concentration at 8 h in data set [5] was determined as 0.07 µM. The compound further gave a half-life in data set [6] of 1.6 h. Besides, the Cmax in data set [13] amounted to 1.2 µM. The same compound came in with a bioavailability in [8] of 23%. For the same compound, in data set [9], the Fold shift is recorded as 35.
With `CCCCN1C(=O)N(Cc2ccc3[nH]nc(N)c3c2)[C@H](Cc2cc(C)cc(C)c2)[C@H](O)[C@@H](O)[C@H]1Cc1cc(C)cc(C)c1`, the IC90 turned out to be 7540 nM in [1], 56 nM in data set [2] and 66 nM in data set [10]. This compound also yielded a Ki in [3] of 0.19 nM.
For `Nc1[nH]nc2ccc(CN3C(=O)N(Cc4ccccc4)[C@H](Cc4ccccc4)[C@H](O)[C@@H](O)[C@H]3Cc3ccccc3)cc12`, the 90% effect concentration (IC90) in data set [1] was 1520 nM; in [2], 92 nM; in [15] it was 257 nM; in the data set on MT2 [4], 2100 nM; in the data set filed under Homo sapiens, 496 nM; in data set [10] it was 62 nM. The same compound came in with a concentration for an effect of 90% (IC90) in the data set with MT2 [11] of 370 nM.
On to `CCCCN1C(=O)N(Cc2ccc3[nH]nc(N)c3c2)[C@H](Cc2cccc(C)c2)[C@H](O)[C@@H](O)[C@H]1Cc1cccc(C)c1`, for which the IC90 in data set [1] was found to be 1600 nM; in data set [2], 54 nM; in the data set with MT2 [4], 1600 nM; in the data set listed under Homo sapiens, 775 nM; in data set [10] it was 31 nM. The same compound displayed a Ki in [3] of 0.045 nM. Further, the Fold shift in data set [9] is reported as 25.
In the case of `CCCCN1C(=O)N(Cc2ccc3[nH]nc(N)c3c2)[C@H](Cc2ccccc2)[C@H](O)[C@@H](O)[C@H]1Cc1ccccc1`, the IC90 in data set [1] worked out at 1470 nM; in [2] it was 69 nM; in the data set with MT2 [4], 1790 nM; in data set [14], 87 nM; in the data set listed under Homo sapiens, 952 nM; in data set [10] it was 56 nM. The same compound returned an IC90 in the data set on MT2 [11] of 390 nM. The affinity in data set [3], expressed as Ki, was 0.021 nM. Also, the concentration at 8 h in data set [5] was 7.2 µM. The compound also had a half-life in data set [6] of 7.7 h. In [13], this compound had a Cmax of 11.7 µM. The bioavailability in data set [8] is 57%. In addition, the Fold shift in data set [9] is recorded as 17.
`Cc1ccc(C[C@@H]2[C@H](O)[C@@H](O)[C@@H](Cc3ccc(C)cc3)N(Cc3ccc4[nH]nc(N)c4c3)C(=O)N2Cc2ccccc2)cc1`: the IC90 in data set [1] is 1880 nM; in data set [2] it was 17 nM; with MT2 [4] it was above 1700 nM; in data set [14], 24 nM; in the data set filed under Homo sapiens, 192 nM; in [10], 12 nM. For the same compound, the 90% effect level in the data set on MT2 [11] (IC90) was put at 310 nM. Besides, the affinity in [3], expressed as Ki, was 0.047 nM. The compound also showed a half-life in data set [12] of 3.9 h. In addition, the concentration at 8 h in [5] is 0.35 µM. The maximum concentration (Cmax) in data set [7] was determined as 3.6 µM. The bioavailability in [8] was determined as 29%. In addition, the Fold shift in data set [9] was found to be 16.
In the case of `CCc1ccc(C[C@@H]2[C@H](O)[C@@H](O)[C@@H](Cc3ccc(CC)cc3)N(Cc3ccc4[nH]nc(N)c4c3)C(=O)N2Cc2ccccc2)cc1`, the IC90 is 12600 nM in data set [1]; 81 nM in data set [2]; above 1600 nM in the data set with MT2 [4]; 247 nM in the data set listed under Homo sapiens; 19 nM in data set [10]; 410 nM with MT2 [11]. In addition, the Ki in [3] is 0.072 nM. Further, in data set [9], the Fold shift is listed as 13.
`Cc1cc(C)cc(C[C@@H]2[C@H](O)[C@@H](O)[C@@H](Cc3cc(C)cc(C)c3)N(Cc3ccc4[nH]nc(N)c4c3)C(=O)N2Cc2ccccc2)c1`: the concentration for an effect of 90% (IC90) in data set [1] was above 7300 nM; in data set [2] it was 100 nM; in the data set listed under Homo sapiens, 350 nM; in data set [10], 50 nM. In data set [3], this compound displayed an inhibition constant Ki of 0.2 nM. The Fold shift in data set [9] was 7.
